Tests used:
Format in all cases: in vivo
[1] = tested on: barnyardgrass (Echinochloa crus-galli); assay: Test G Pre-Emergence Protocol; settings: Echinochloa crus-galli, pre-emergence, 312 h, evaluated after 13 days; for pest or weed control at 15.625 g/ha: 15.625 g ai/ha, read-out: Barnyard grass damage rating (100=total damage to plant; 0=no damage to plant); for pest or weed control at 62.5 g/ha: 62.5 g ai/ha, 100=total damage to plant, 0=no damage to plant, read-out: plant damage rating, Barnyardgrass; for pest or weed control at 250 g/ha: 250 g ai/ha, read-out: Barnyardgrass damage rating (100=total damage to plant; 0=no damage to plant)
How it was run: (§1)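 Visual injury (0–100) at day 13 after a single pre-emergence spray. Rates: 15.625, 62.5, 250 g/ha in acetone–water 50:50 with 0.5% Tween 20. Growth conditions: 24/16° C, 14 h light, 65% humidity.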

[2] = tested on: corn (Zea mays); assay: Test G Pre-Emergence Protocol; settings: Zea mays, pre-emergence, 312 h, evaluated after 13 days; for plant injury at 15.625 g/ha: 15.625 g ai/ha; for plant injury at 15.625 g/ha / plant injury at 250 g/ha: read-out: Corn damage rating (100=total damage to plant; 0=no damage to plant); for plant injury at 62.5 g/ha: 62.5 g ai/ha, 100=total damage to plant, 0=no damage to plant, read-out: plant damage rating, Corn; for plant injury at 250 g/ha: 250 g ai/ha
How it was run: as §1

[3] = tested on: giant foxtail (Setaria faberi); assay: Test G Pre-Emergence Protocol; settings: Setaria faberi, pre-emergence, 312 h, evaluated after 13 days; for pest or weed control at 15.625 g/ha: 15.625 g ai/ha; for pest or weed control at 15.625 g/ha / pest or weed control at 250 g/ha: read-out: Foxtail, Giant damage rating (100=total damage to plant; 0=no damage to plant); for pest or weed control at 62.5 g/ha: 62.5 g ai/ha, 100=total damage to plant, 0=no damage to plant, read-out: plant damage rating, Foxtail, Giant; for pest or weed control at 250 g/ha: 250 g ai/ha
How it was run: as §1

[4] = tested on: ivy-leaved morning glory (Ipomoea hederacea); assay: Test G Pre-Emergence Protocol; settings: Ipomoea, pre-emergence, 312 h, evaluated after 13 days; for pest or weed control at 15.625 g/ha: 15.625 g ai/ha, read-out: Morning-glory, Ivy-leaved damage rating (100=total damage to plant; 0=no damage to plant); for pest or weed control at 62.5 g/ha: 62.5 g ai/ha, 100=total damage to plant, 0=no damage to plant, read-out: plant damage rating, Morningglory, Ivy-leaved; for pest or weed control at 250 g/ha: 250 g ai/ha, read-out: Morningglory, Ivy-leaved damage rating (100=total damage to plant; 0=no damage to plant)
How it was run: as §1

[5] = tested on: redroot pigweed (Amaranthus retroflexus); assay: Test G Pre-Emergence Protocol; settings: Amaranthus retroflexus, pre-emergence, 312 h, evaluated after 13 days; for pest or weed control at 15.625 g/ha: 15.625 g ai/ha; for pest or weed control at 15.625 g/ha / pest or weed control at 250 g/ha: read-out: Pigweed, Redroot damage rating (100=total damage to plant; 0=no damage to plant); for pest or weed control at 62.5 g/ha: 62.5 g ai/ha, 100=total damage to plant, 0=no damage to plant, read-out: plant damage rating, Pigweed, Redroot; for pest or weed control at 250 g/ha: 250 g ai/ha
How it was run: as §1

[6] = tested on: velvetleaf (Abutilon theophrasti); assay: Test G Pre-Emergence Protocol; settings: Abutilon theophrasti, pre-emergence, 312 h, evaluated after 13 days; for pest or weed control at 15.625 g/ha: 15.625 g ai/ha; for pest or weed control at 15.625 g/ha / pest or weed control at 250 g/ha: read-out: Velvetleaf damage rating (100=total damage to plant; 0=no damage to plant); for pest or weed control at 62.5 g/ha: 62.5 g ai/ha, 100=total damage to plant, 0=no damage to plant, read-out: plant damage rating, Velvetleaf; for pest or weed control at 250 g/ha: 250 g ai/ha
How it was run: as §1

[7] = tested on: barnyardgrass (Echinochloa crus-galli); assay: Test G Post-Emergence Protocol; settings: Echinochloa crus-galli, post-emergence, 312 h; for pest or weed control at 15.625 g/ha: 15.625 g ai/ha, evaluated after 13 days (100=total damage to plant; 0=no damage to plant), read-out: Barnyardgrass damage rating; for pest or weed control at 62.5 g/ha: 62.5 g ai/ha, read-out: Barnyardgrass damage rating (100=total damage to plant; 0=no damage to plant); for pest or weed control at 62.5 g/ha / pest or weed control at 250 g/ha: evaluated after 13 days; for pest or weed control at 250 g/ha: 250 g ai/ha, read-out: damage to plant, Barnyardgrass (100=total damage to plant; 0=no damage to plant)
How it was run: (§2)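 Sow in soil; grow 8 d (24/16 °C, 14 h light, 65% humidity); spray 15.625/62.5/250 g/ha in acetone:water 50:50 + 0.5% Tween 20; grow on, water twice daily; score damage 0–100 at 13 d.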

[8] = tested on: corn (Zea mays); assay: Test G Post-Emergence Protocol; settings: Zea mays, post-emergence, 312 h; for plant injury at 15.625 g/ha: 15.625 g ai/ha, evaluated after 13 days (100=total damage to plant; 0=no damage to plant), read-out: Corn damage rating; for plant injury at 62.5 g/ha: 62.5 g ai/ha, read-out: Corn damage rating (100=total damage to plant; 0=no damage to plant); for plant injury at 62.5 g/ha / plant injury at 250 g/ha: evaluated after 13 days; for plant injury at 250 g/ha: 250 g ai/ha, read-out: damage to plant, Corn (100=total damage to plant; 0=no damage to plant)
How it was run: as §2

[9] = tested on: giant foxtail (Setaria faberi); assay: Test G Post-Emergence Protocol; settings: Setaria faberi, post-emergence, 312 h; for pest or weed control at 15.625 g/ha: 15.625 g ai/ha, evaluated after 13 days (100=total damage to plant; 0=no damage to plant), read-out: Foxtail, Giant damage rating; for pest or weed control at 62.5 g/ha: 62.5 g ai/ha, read-out: Foxtail, Giant damage rating (100=total damage to plant; 0=no damage to plant); for pest or weed control at 62.5 g/ha / pest or weed control at 250 g/ha: evaluated after 13 days; for pest or weed control at 250 g/ha: 250 g ai/ha, read-out: damage to plant, Foxtail, Giant (100=total damage to plant; 0=no damage to plant)
How it was run: as §2

[10] = tested on: ivy-leaved morning glory (Ipomoea hederacea); assay: Test G Post-Emergence Protocol; settings: Ipomoea, post-emergence, 312 h; for pest or weed control at 15.625 g/ha: 15.625 g ai/ha, evaluated after 13 days (100=total damage to plant; 0=no damage to plant), read-out: Morningglory, Ivy-leaved damage rating; for pest or weed control at 62.5 g/ha: 62.5 g ai/ha, read-out: Morningglory, Ivy-leaved damage rating (100=total damage to plant; 0=no damage to plant); for pest or weed control at 62.5 g/ha / pest or weed control at 250 g/ha: evaluated after 13 days; for pest or weed control at 250 g/ha: 250 g ai/ha, read-out: damage to plant, Morningglory, Ivy-leaved (100=total damage to plant; 0=no damage to plant)
How it was run: as §2

[11] = tested on: redroot pigweed (Amaranthus retroflexus); assay: Test G Post-Emergence Protocol; settings: Amaranthus retroflexus, post-emergence, 312 h; for pest or weed control at 15.625 g/ha: 15.625 g ai/ha, evaluated after 13 days (100=total damage to plant; 0=no damage to plant), read-out: Pigweed, Redroot damage rating; for pest or weed control at 62.5 g/ha: 62.5 g ai/ha, read-out: Pigweed, Redroot damage rating (100=total damage to plant; 0=no damage to plant); for pest or weed control at 62.5 g/ha / pest or weed control at 250 g/ha: evaluated after 13 days; for pest or weed control at 250 g/ha: 250 g ai/ha, read-out: damage to plant, Pigweed, Redroot (100=total damage to plant; 0=no damage to plant)
How it was run: as §2

[12] = tested on: velvetleaf (Abutilon theophrasti); assay: Test G Post-Emergence Protocol; settings: Abutilon theophrasti, post-emergence, 312 h; for pest or weed control at 15.625 g/ha: 15.625 g ai/ha, evaluated after 13 days (100=total damage to plant; 0=no damage to plant), read-out: Velvetleaf damage rating; for pest or weed control at 62.5 g/ha: 62.5 g ai/ha, read-out: Velvetleaf damage rating (100=total damage to plant; 0=no damage to plant); for pest or weed control at 62.5 g/ha / pest or weed control at 250 g/ha: evaluated after 13 days; for pest or weed control at 250 g/ha: 250 g ai/ha, read-out: damage to plant, Velvetleaf (100=total damage to plant; 0=no damage to plant)
How it was run: as §2

COc1c(Cl)ccc([C@H]2CN(C)C(=O)[C@@H]2C(=O)Nc2cccc(F)n2)c1F (racemic) [Compound 1477]
pest or weed control at 15.625 g/ha [1]: 50%
pest or weed control at 62.5 g/ha [1]: 60%
pest or weed control at 250 g/ha [1]: 80%
plant injury at 15.625 g/ha [2]: 20%
plant injury at 62.5 g/ha [2]: 40%
plant injury at 250 g/ha [2]: 50%
pest or weed control at 15.625 g/ha [3]: 60%
pest or weed control at 62.5 g/ha [3]: 80%
pest or weed control at 250 g/ha [3]: 90%
pest or weed control at 15.625 g/ha [4]: 0%
pest or weed control at 62.5 g/ha [4]: 0%
pest or weed control at 250 g/ha [4]: 0%
pest or weed control at 15.625 g/ha [5]: 0%
pest or weed control at 62.5 g/ha [5]: 0%
pest or weed control at 250 g/ha [5]: 0%
pest or weed control at 15.625 g/ha [6]: 0%
pest or weed control at 62.5 g/ha [6]: 0%
pest or weed control at 250 g/ha [6]: 0%
pest or weed control at 15.625 g/ha [7]: 50%
pest or weed control at 62.5 g/ha [7]: 60%
pest or weed control at 250 g/ha [7]: 60%
plant injury at 15.625 g/ha [8]: 30%
plant injury at 62.5 g/ha [8]: 60%
plant injury at 250 g/ha [8]: 50%
pest or weed control at 15.625 g/ha [9]: 50%
pest or weed control at 62.5 g/ha [9]: 60%
pest or weed control at 250 g/ha [9]: 70%
pest or weed control at 15.625 g/ha [10]: 0%
pest or weed control at 62.5 g/ha [10]: 0%
pest or weed control at 250 g/ha [10]: 0%
pest or weed control at 15.625 g/ha [11]: 0%
pest or weed control at 62.5 g/ha [11]: 0%
pest or weed control at 250 g/ha [11]: 30%
pest or weed control at 15.625 g/ha [12]: 0%
pest or weed control at 62.5 g/ha [12]: 20%
pest or weed control at 250 g/ha [12]: 20%

CN1C[C@@H](c2cncc(F)c2)[C@H](C(=O)Nc2cccc(F)c2F)C1=O (racemic) [Compound 1482]
pest or weed control at 15.625 g/ha [1]: 10%
pest or weed control at 62.5 g/ha [1]: 30%
pest or weed control at 250 g/ha [1]: 80%
plant injury at 15.625 g/ha [2]: 30%
plant injury at 62.5 g/ha [2]: 40%
plant injury at 250 g/ha [2]: 30%
pest or weed control at 15.625 g/ha [3]: 20%
pest or weed control at 62.5 g/ha [3]: 60%
pest or weed control at 250 g/ha [3]: 90%
pest or weed control at 15.625 g/ha [4]: 0%
pest or weed control at 62.5 g/ha [4]: 0%
pest or weed control at 250 g/ha [4]: 10%
pest or weed control at 15.625 g/ha [5]: 0%
pest or weed control at 62.5 g/ha [5]: 0%
pest or weed control at 250 g/ha [5]: 10%
pest or weed control at 15.625 g/ha [6]: 0%
pest or weed control at 62.5 g/ha [6]: 0%
pest or weed control at 250 g/ha [6]: 10%
pest or weed control at 15.625 g/ha [7]: 30%
pest or weed control at 62.5 g/ha [7]: 30%
pest or weed control at 250 g/ha [7]: 60%
plant injury at 15.625 g/ha [8]: 20%
plant injury at 62.5 g/ha [8]: 30%
plant injury at 250 g/ha [8]: 30%
pest or weed control at 15.625 g/ha [9]: 30%
pest or weed control at 62.5 g/ha [9]: 30%
pest or weed control at 250 g/ha [9]: 60%
pest or weed control at 15.625 g/ha [10]: 0%
pest or weed control at 62.5 g/ha [10]: 0%
pest or weed control at 250 g/ha [10]: 0%
pest or weed control at 15.625 g/ha [11]: 0%
pest or weed control at 62.5 g/ha [11]: 0%
pest or weed control at 250 g/ha [11]: 0%
pest or weed control at 15.625 g/ha [12]: 0%
pest or weed control at 62.5 g/ha [12]: 0%
pest or weed control at 250 g/ha [12]: 10%
